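48-hour exposure; five concentrations; linearly interpolated endpoints. The concentration for 50% growth inhibition is given as GI50. TGI: total growth inhibition.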
What was measured:
Test in all cases: DTP human tumour cell line panel, 48 h
HCT-15 colon = tested on: HCT-15 colon
SF-539 CNS = tested on: SF-539 CNS
TK-10 renal = tested on: TK-10 renal
IGROV1 ovarian = tested on: IGROV1 ovarian
T-47D breast = tested on: T-47D breast
SF-295 CNS = tested on: SF-295 CNS
COLO 205 colon = tested on: COLO 205 colon
NCI-H226 lung = tested on: NCI-H226 lung
DU-145 prostate = tested on: DU-145 prostate
UACC-62 melanoma = tested on: UACC-62 melanoma

Compound | TGI (HCT-15 colon) [µM] | TGI (SF-539 CNS) [µM] | TGI (TK-10 renal) [µM] | TGI (IGROV1 ovarian) [µM] | TGI (T-47D breast) [µM] | TGI (SF-295 CNS) [µM] | TGI (COLO 205 colon) [µM] | TGI (NCI-H226 lung) [µM] | TGI (DU-145 prostate) [µM] | TGI (UACC-62 melanoma) [µM] | GI50 (HCT-15 colon) [µM] | GI50 (SF-539 CNS) [µM] | GI50 (TK-10 renal) [µM] | GI50 (IGROV1 ovarian) [µM] | GI50 (T-47D breast) [µM] | GI50 (SF-295 CNS) [µM] | GI50 (COLO 205 colon) [µM] | GI50 (NCI-H226 lung) [µM] | GI50 (DU-145 prostate) [µM] | GI50 (UACC-62 melanoma) [µM]
COc1cc(-c2oc3c(OC)c(O)c(OC)c(O)c3c(=O)c2OC)cc(OC)c1OC | > 100 | > 100 | > 100 | > 100 | > 100 | > 100 | > 100 | > 100 | > 100 | > 100 | – | – | – | – | – | – | – | – | – | –
C=C(C)COc1ccc2c(c1)CCC1C2CCC2(C)C(=O)/C(=N/O)CC12 (stereo not given) | 7.52 | 26.3 | 5.58 | 4.6 | 8.61 | 19.3 | 14.4 | 26.6 | 7.93 | 28.5 | – | – | – | – | – | – | – | – | – | –
COc1ccc2c(c1)OCC1c3cc(OC)c4ccccc4c3OC21 (stereo not given) | > 100 | > 100 | 53.9 | 21.6 | 47 | 6.91 | 33.1 | 90.2 | > 100 | 18.9 | 6.06 | 21.3 | 11.8 | 4.98 | 13.7 | 2 | 7.98 | 15.6 | 18.8 | 3.05
CCCCCOC(=O)Nc1nc(=O)n(C2OC(C)C(O)C2O)cc1F (stereo not given) | > 10000 | > 10000 | > 10000 | > 10000 | > 10000 | > 10000 | – | – | – | – | > 10000 | > 10000 | > 10000 | – | > 10000 | > 10000 | – | – | – | –
COc1cc(C2C(C(=O)NCc3ccccc3)=C(C)NC(C)=C2C(=O)NCc2ccccc2)ccc1O | > 100 | 41 | > 100 | > 100 | – | > 100 | – | > 100 | – | > 100 | – | – | – | – | – | – | – | – | – | –
O=C1CCc2cc(Br)ccc2O1 | > 100 | > 100 | > 100 | > 100 | > 100 | > 100 | > 100 | > 100 | > 100 | > 100 | – | – | – | – | – | – | – | – | – | –
Clc1nc(Cl)c2ncn(-c3ccccc3)c2n1 | 16 | 27.3 | 20.9 | 3.38 | 8.63 | 23 | 13.5 | 28.5 | 2.96 | 25.3 | 3.42 | 10.6 | 7.46 | 1.66 | 2.95 | 10.3 | 3.4 | 12.1 | 1.44 | 11.3
COc1ccc(-c2nc3sccn3c2-c2ccnc(NCCNS(=O)(=O)c3ccc(C(F)(F)F)cc3)n2)cc1 | > 100 | 7.77 | > 100 | > 100 | > 100 | 5.58 | > 100 | 10.3 | > 100 | 3.4 | 2.59 | 2.55 | 2.87 | 3.18 | 1.69 | 2.24 | 3.29 | 2.42 | 1.53 | 0.485
Nc1nc(N)c2cc(S(=O)(=O)c3ccc4ccccc4c3)ccc2n1 | > 100 | > 74.7 | > 81.2 | > 100 | > 29.6 | > 56.3 | > 100 | > 100 | > 100 | > 100 | – | – | – | – | – | – | 6.37 | 10.8 | 7.78 | –
Cc1ccc(NC(=S)NNC(=S)Nc2ccc(C)cc2)cc1 | > 100 | > 100 | > 100 | > 100 | > 100 | > 100 | 50 | > 100 | 59.2 | > 100 | 5.15 | 5.46 | 18.2 | 6.24 | 14.4 | 3.16 | 7.6 | > 100 | 6.89 | 5.17
O=C(c1ccccc1)n1cc(/C=C/[N+](=O)[O-])c2ccccc21 | 39.8 | 46.4 | > 100 | 54.7 | – | > 100 | 59.2 | – | – | 36.9 | – | – | – | – | – | – | – | – | – | –
NS(=O)(=O)c1ccc(N=Nc2c(O)[nH]c3ccc(C(=O)NCCCn4ccnc4)cc23)cc1 | > 25 | > 25 | > 25 | > 25 | > 25 | > 25 | > 25 | > 25 | > 25 | > 25 | > 25 | > 25 | > 25 | > 25 | > 25 | > 25 | > 25 | > 25 | > 25 | > 25
CC[O-].CC[O-].O=C1C=C([O-])C(=O)c2ccccc21.O=C1C=C([O-])C(=O)c2ccccc21.[Ti+4] | > 100 | > 100 | > 100 | > 100 | – | > 100 | > 59.8 | > 100 | – | > 100 | 60.6 | 100 | > 67.7 | > 100 | – | – | 24 | > 82.8 | – | 21.5
CCCCCCCCCCCCCCCC(=O)NS(=O)(=O)OC[C@H]1O[C@@H](n2cnc3c(N)ncnc32)[C@H](O)[C@@H]1O | 2.11 | 0.359 | < 0.0259 | 0.199 | 1.34 | 2.31 | < 0.0238 | < 0.0497 | 3.98 | 0.599 | < 0.0424 | 0.118 | < 0.0163 | 0.0371 | 0.275 | 1.01 | < 0.0157 | < 0.0245 | < 0.0462 | 0.215
CCN(N=O)C1C2(CCCC2)NC(=O)C12CCCC2 (stereo not given) | > 100 | > 100 | > 100 | > 100 | – | > 100 | – | > 100 | – | > 100 | – | – | – | – | – | – | – | – | – | –
COc1ccc(OC(=O)N2C/C(=C\c3ccccc3)C(=O)/C(=C/c3ccccc3)C2)cc1 | 9.23 | 22.5 | 44 | 16.3 | 48.1 | 10.1 | 15.7 | 30.3 | 65.1 | 5.35 | – | – | – | – | – | – | – | – | – | –
